Tested on: yeast genes (expressed mRNA)
Experiment: DNA chip measurement of expressed mRNA of yeast genes after culture with a toxic chemical substance
Type: cell-based, Saccharomyces cerevisiae S288C
Summary of the method: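 Two-hour exposure of growing S. cerevisiae S288C (YPD, 25° C) to a sublethal toxicant preceded RNA isolation. Fluorescent cDNA was hybridized to a whole-genome array; a treated-to-untreated signal ratio of two or more was taken as significant.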

## Oc1cc(Cl)c(Cl)cc1Cl [(6), 2,4,5-Trichlorophenol]
Yeast gene YAL053W, cultured two hours with substance
  The level of expressed mRNA in the presence of chemical substance/The level of expressed mRNA in the absence of chemical substance: 1.1
Yeast gene YAR028W, cultured two hours with substance
  The level of expressed mRNA in the presence of chemical substance/The level of expressed mRNA in the absence of chemical substance: 3.3
Yeast gene YBL043W
  The level of expressed mRNA in the presence of chemical substance/The level of expressed mRNA in the absence of chemical substance: 26.9
Yeast gene YBL048W, cultured two hours with substance
  The level of expressed mRNA in the presence of chemical substance/The level of expressed mRNA in the absence of chemical substance: 2.0
Yeast gene YBL107C, cultured two hours with substance
  The level of expressed mRNA in the presence of chemical substance/The level of expressed mRNA in the absence of chemical substance: 1.1
Yeast gene YBR026C
  The level of expressed mRNA in the presence of chemical substance/The level of expressed mRNA in the absence of chemical substance: 0.1
Yeast gene YBR072W (stress protein genes)
  The level of expressed mRNA in the presence of chemical substance/The level of expressed mRNA in the absence of chemical substance: 32.2
Yeast gene YBR145W
  The level of expressed mRNA in the presence of chemical substance/The level of expressed mRNA in the absence of chemical substance: 11.5
Yeast gene YBR145W (detoxification protein gene)
  The level of expressed mRNA in the presence of chemical substance/The level of expressed mRNA in the absence of chemical substance: 11.5
Yeast gene YBR145W, cultured for two hours with substance
  The level of expressed mRNA in the presence of chemical substance/The level of expressed mRNA in the absence of chemical substance: 11.5
Yeast gene YBR169C (stress protein genes)
  The level of expressed mRNA in the presence of chemical substance/The level of expressed mRNA in the absence of chemical substance: 4.9
Yeast gene YDL072C, cultured two hours with substance
  The level of expressed mRNA in the presence of chemical substance/The level of expressed mRNA in the absence of chemical substance: 1.5
Yeast gene YDL204W, cultured two hours with substance
  The level of expressed mRNA in the presence of chemical substance/The level of expressed mRNA in the absence of chemical substance: 5.6
Yeast gene YDL206W (transport facilitation protein genes)
  The level of expressed mRNA in the presence of chemical substance/The level of expressed mRNA in the absence of chemical substance: 5.7
Yeast gene YDL222C, cultured two hours with substance
  The level of expressed mRNA in the presence of chemical substance/The level of expressed mRNA in the absence of chemical substance: 1.4
Yeast gene YDR031W, cultured two hours with substance
  The level of expressed mRNA in the presence of chemical substance/The level of expressed mRNA in the absence of chemical substance: 3.6
Yeast gene YDR033W (stress protein genes)
  The level of expressed mRNA in the presence of chemical substance/The level of expressed mRNA in the absence of chemical substance: 6.7
Yeast gene YDR315C
  The level of expressed mRNA in the presence of chemical substance/The level of expressed mRNA in the absence of chemical substance: 9.4
Yeast gene YDR330W, cultured two hours with substance
  The level of expressed mRNA in the presence of chemical substance/The level of expressed mRNA in the absence of chemical substance: 2.3
Yeast gene YDR391C, cultured two hours with substance
  The level of expressed mRNA in the presence of chemical substance/The level of expressed mRNA in the absence of chemical substance: 2.8
Yeast gene YDR406W (transport facilitation protein gene)
  The level of expressed mRNA in the presence of chemical substance/The level of expressed mRNA in the absence of chemical substance: 5.9
Yeast gene YDR411C, cultured two hours with substance
  The level of expressed mRNA in the presence of chemical substance/The level of expressed mRNA in the absence of chemical substance: 0.8
Yeast gene YDR511W, cultured two hours with substance
  The level of expressed mRNA in the presence of chemical substance/The level of expressed mRNA in the absence of chemical substance: 2.0
Yeast gene YDR545W, cultured two hours with substance
  The level of expressed mRNA in the presence of chemical substance/The level of expressed mRNA in the absence of chemical substance: 1.0
Yeast gene YEL001C, cultured two hours with substance
  The level of expressed mRNA in the presence of chemical substance/The level of expressed mRNA in the absence of chemical substance: 1.3
Yeast gene YER004W, cultured two hours with substance
  The level of expressed mRNA in the presence of chemical substance/The level of expressed mRNA in the absence of chemical substance: 1.2
Yeast gene YER035W, cultured two hours with substance
  The level of expressed mRNA in the presence of chemical substance/The level of expressed mRNA in the absence of chemical substance: 0.9
Yeast gene YER079W, cultured two hours with substance
  The level of expressed mRNA in the presence of chemical substance/The level of expressed mRNA in the absence of chemical substance: 1.5
Yeast gene YER106W, cultured two hours with substance
  The level of expressed mRNA in the presence of chemical substance/The level of expressed mRNA in the absence of chemical substance: 1.1
Yeast gene YER158C, cultured two hours with substance
  The level of expressed mRNA in the presence of chemical substance/The level of expressed mRNA in the absence of chemical substance: 0.7
Yeast gene YER163C, cultured two hours with substance
  The level of expressed mRNA in the presence of chemical substance/The level of expressed mRNA in the absence of chemical substance: 2.0
Yeast gene YER175C, cultured two hours with substance
  The level of expressed mRNA in the presence of chemical substance/The level of expressed mRNA in the absence of chemical substance: 0.8
Yeast gene YFL006W, cultured two hours with substance
  The level of expressed mRNA in the presence of chemical substance/The level of expressed mRNA in the absence of chemical substance: 1.2
Yeast gene YFL010C, cultured two hours with substance
  The level of expressed mRNA in the presence of chemical substance/The level of expressed mRNA in the absence of chemical substance: 1.9
Yeast gene YFL014W, DNA repair protein genes, cultured two hours with substance
  The level of expressed mRNA in the presence of chemical substance/The level of expressed mRNA in the absence of chemical substance: 9.3
Yeast gene YFL024C, cultured two hours with substance
  The level of expressed mRNA in the presence of chemical substance/The level of expressed mRNA in the absence of chemical substance: 2.0
Yeast gene YFL032W, cultured two hours with substance
  The level of expressed mRNA in the presence of chemical substance/The level of expressed mRNA in the absence of chemical substance: 0.6
Yeast gene YGL037C, cultured two hours with substance
  The level of expressed mRNA in the presence of chemical substance/The level of expressed mRNA in the absence of chemical substance: 1.3
Yeast gene YGL047W, cultured two hours with substance
  The level of expressed mRNA in the presence of chemical substance/The level of expressed mRNA in the absence of chemical substance: 1.5
Yeast gene YGL053W, cultured two hours with substance
  The level of expressed mRNA in the presence of chemical substance/The level of expressed mRNA in the absence of chemical substance: 2.7
Yeast gene YGL117W, cultured two hours with substance
  The level of expressed mRNA in the presence of chemical substance/The level of expressed mRNA in the absence of chemical substance: 0.9
Yeast gene YGL121C, cultured two hours with substance
  The level of expressed mRNA in the presence of chemical substance/The level of expressed mRNA in the absence of chemical substance: 9.8
Yeast gene YGL199C, cultured two hours with substance
  The level of expressed mRNA in the presence of chemical substance/The level of expressed mRNA in the absence of chemical substance: 0.7
Yeast gene YGR043C
  The level of expressed mRNA in the presence of chemical substance/The level of expressed mRNA in the absence of chemical substance: 16.3
Yeast gene YGR043C, cultured for two hours with substance
  The level of expressed mRNA in the presence of chemical substance/The level of expressed mRNA in the absence of chemical substance: 16.3
Yeast gene YGR101W, cultured two hours with substance
  The level of expressed mRNA in the presence of chemical substance/The level of expressed mRNA in the absence of chemical substance: 0.9
Yeast gene YGR108W
  The level of expressed mRNA in the presence of chemical substance/The level of expressed mRNA in the absence of chemical substance: 0.1
Yeast gene YGR110W, cultured two hours with substance
  The level of expressed mRNA in the presence of chemical substance/The level of expressed mRNA in the absence of chemical substance: 0.9
Yeast gene YGR130C, cultured two hours with substance
  The level of expressed mRNA in the presence of chemical substance/The level of expressed mRNA in the absence of chemical substance: 0.9
Yeast gene YGR154C, cultured two hours with substance
  The level of expressed mRNA in the presence of chemical substance/The level of expressed mRNA in the absence of chemical substance: 1.4
Yeast gene YGR221C, cultured two hours with substance
  The level of expressed mRNA in the presence of chemical substance/The level of expressed mRNA in the absence of chemical substance: 3.0
Yeast gene YHL040C (detoxification protein gene)
  The level of expressed mRNA in the presence of chemical substance/The level of expressed mRNA in the absence of chemical substance: 7.3
Yeast gene YHL040C (transport facilitation protein gene)
  The level of expressed mRNA in the presence of chemical substance/The level of expressed mRNA in the absence of chemical substance: 7.3
Yeast gene YHR029C, cultured two hours with substance
  The level of expressed mRNA in the presence of chemical substance/The level of expressed mRNA in the absence of chemical substance: 2.7
Yeast gene YHR138C, cultured two hours with substance
  The level of expressed mRNA in the presence of chemical substance/The level of expressed mRNA in the absence of chemical substance: 3.8
Yeast gene YHR199C, cultured two hours with substance
  The level of expressed mRNA in the presence of chemical substance/The level of expressed mRNA in the absence of chemical substance: 1.1
Yeast gene YIL023C, cultured two hours with substance
  The level of expressed mRNA in the presence of chemical substance/The level of expressed mRNA in the absence of chemical substance: 0.9
Yeast gene YIL024C, cultured two hours with substance
  The level of expressed mRNA in the presence of chemical substance/The level of expressed mRNA in the absence of chemical substance: 1.0
Yeast gene YIL041W, cultured two hours with substance
  The level of expressed mRNA in the presence of chemical substance/The level of expressed mRNA in the absence of chemical substance: 1.0
Yeast gene YIL087C, cultured two hours with substance
  The level of expressed mRNA in the presence of chemical substance/The level of expressed mRNA in the absence of chemical substance: 4.1
Yeast gene YIL117C, cultured two hours with substance
  The level of expressed mRNA in the presence of chemical substance/The level of expressed mRNA in the absence of chemical substance: 1.2
Yeast gene YJL057C, cultured two hours with substance
  The level of expressed mRNA in the presence of chemical substance/The level of expressed mRNA in the absence of chemical substance: 1.4
Yeast gene YJL066C, cultured two hours with substance
  The level of expressed mRNA in the presence of chemical substance/The level of expressed mRNA in the absence of chemical substance: 1.4
Yeast gene YJL082W, cultured two hours with substance
  The level of expressed mRNA in the presence of chemical substance/The level of expressed mRNA in the absence of chemical substance: 0.2
Yeast gene YJL108C, cultured two hours with substance
  The level of expressed mRNA in the presence of chemical substance/The level of expressed mRNA in the absence of chemical substance: 0.6
Yeast gene YJL149W, cultured two hours with substance
  The level of expressed mRNA in the presence of chemical substance/The level of expressed mRNA in the absence of chemical substance: 0.7
Yeast gene YJL151C, cultured two hours with substance
  The level of expressed mRNA in the presence of chemical substance/The level of expressed mRNA in the absence of chemical substance: 2.2
Yeast gene YJL152W, cultured two hours with substance
  The level of expressed mRNA in the presence of chemical substance/The level of expressed mRNA in the absence of chemical substance: 1.5
Yeast gene YJL161W, cultured two hours with substance
  The level of expressed mRNA in the presence of chemical substance/The level of expressed mRNA in the absence of chemical substance: 8.0
Yeast gene YJL171C, cultured two hours with substance
  The level of expressed mRNA in the presence of chemical substance/The level of expressed mRNA in the absence of chemical substance: 2.7
Yeast gene YJL186W, cultured two hours with substance
  The level of expressed mRNA in the presence of chemical substance/The level of expressed mRNA in the absence of chemical substance: 0.7
Yeast gene YJR008W, cultured two hours with substance
  The level of expressed mRNA in the presence of chemical substance/The level of expressed mRNA in the absence of chemical substance: 2.2

From patent US20100041089A1, “IMPROVED METHOD FOR DETECTING CHEMICAL […]” (priority 2006, published 2010)
